According to patent US20100010037A1, “1H-PYRROLO[2,3-B]PYRIDINE DERIVATIVES USEFUL AS HSP90 INHIBITORS” (VERNALIS (R&D) LTD., priority 2006, published 2010):

Columns and labels:
human full-length HSP90 = biological target: T1, human full-length HSP90 (Homo sapiens, UniProt P08238); assay: Fluorescence polarization assay (competitive displacement of fluorescein-labelled probe from HSP90); format: binding; conditions: human full-length HSP90 200 nM, probe 80 nM; read-out: FP IC50 (activity in the fluorescence polarization assay)
T1 construct: E. coli expressed human full-length HSP90 protein; made in house; host or cells: E. coli
T1 sequence (P08238 whole entry): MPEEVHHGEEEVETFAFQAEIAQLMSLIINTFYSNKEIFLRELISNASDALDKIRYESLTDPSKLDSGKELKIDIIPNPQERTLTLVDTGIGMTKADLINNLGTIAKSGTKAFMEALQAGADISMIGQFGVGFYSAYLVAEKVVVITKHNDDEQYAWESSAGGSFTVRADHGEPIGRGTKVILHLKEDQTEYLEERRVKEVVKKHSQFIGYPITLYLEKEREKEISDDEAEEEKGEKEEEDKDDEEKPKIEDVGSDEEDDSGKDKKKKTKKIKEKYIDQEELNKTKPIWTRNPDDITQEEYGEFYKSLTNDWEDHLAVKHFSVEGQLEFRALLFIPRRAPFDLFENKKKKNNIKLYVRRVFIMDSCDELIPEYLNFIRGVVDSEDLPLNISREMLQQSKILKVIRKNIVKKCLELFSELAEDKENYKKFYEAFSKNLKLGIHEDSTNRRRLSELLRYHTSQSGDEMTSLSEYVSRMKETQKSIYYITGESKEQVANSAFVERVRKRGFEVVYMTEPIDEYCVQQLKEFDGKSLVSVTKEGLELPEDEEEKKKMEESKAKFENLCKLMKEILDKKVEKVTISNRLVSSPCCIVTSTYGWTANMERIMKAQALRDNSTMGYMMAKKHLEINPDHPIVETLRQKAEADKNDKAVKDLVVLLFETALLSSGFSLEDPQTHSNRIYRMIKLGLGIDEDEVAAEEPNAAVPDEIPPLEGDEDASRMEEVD
Text: Fluorescence Polarization Assay
Fluorescence polarization {also known as fluorescence anisotropy} measures the rotation of a fluorescing species in solution, where the larger molecule the more polarized the fluorescence emission. When the fluorophore is excited with polarized light, the emitted light is also polarized. The molecular size is proportional to the polarization of the fluorescence emission.
The fluoroscein-labelled probe—
binds to HSP90 {full-length human, full-length yeast or N-terminal domain HSP90} and the anisotropy {rotation of the probe:protein complex} is measured.
Test compound is added to the assay plate, left to equilibrate and the anisotropy measured again. Any change in anisotropy is due to competitive binding of compound to HSP90, thereby releasing probe.
Chemicals are of the highest purity commercially available and all aqueous solutions are made up in AR water. • 1) Costar 96-well black assay plate #3915 • 2) Assay buffer of (a)100 mM Tris pH7.4; (b) 20 mM KCl; (c) 6 mM MgCl2. Stored at room temperature. • 3) BSA (bovine serum albumen) 10 mg/ml (New England Biolabs # B9001S) • 4) 20 mM probe in 100% DMSO stock concentration. Stored in the dark at RT. Working concentration is 200 nM diluted in AR water and stored at 4° C. Final concentration in assay 80 nM. • 5) E. coli expressed human full-length HSP90 protein, purified >95% (see, e.g., Panaretou et al., 1998) and stored in 50 μL aliquots at −80° C.
Protocol • 1) Add 100 μl 1× buffer to wells 11A and 12A (=FP BLNK) • 2) Prepare assay mix—all reagents are kept on ice with a lid on the bucket as the probe is light-sensitive.
• 3) Aliquot 100 μl assay mix to all other wells • 4) Seal plate and leave in dark at room temp for 20 minutes to equilibrate
Compound Dilution Plate—1×3 dilution series • 1) In a clear 96-well v-bottom plate—{# VWR 007/008/257} add 10 μl 100% DMSO to wells B1 to H11 • 2) To wells A1 to A11 add 17.5 μl 100% DMSO • 3) Add 2.5 μl cpd to A1. This gives 2.5 mM {50×} stock cpd—assuming cpds 20 mM. • 4) Repeat for wells A2 to A10. Control in columns 11 and 12. • 5) Transfer 5 μl from row A to row B—not column 12. Mix well. • 6) Transfer 5 μl from row B to row C. […] In column 11 {provides standard curve} only add compound B11-H11. Add 2 μl of 100 mM standard cpd to wells B12-H12 {is positive control} • 13) The Z′ factor is calculated from zero controls and positive wells. It typically gives a value of 0.7-0.9.

[1] = Growth inhibition assay: cytotoxicity by sulforhodamine B (SRB) assay; format: cell-based; conditions: SRB stain, absorbance at 540 nm; cell line not named
Protocol: A growth inhibition assay was also employed for the evaluation of candidate HSP90 inhibitors:
Assessment of Cytotoxicity by Sulforhodamine B (SRB) Assay: Calculation of 50% Inhibitory Concentration (IC50).
Day 1 • 1) Determine cell number by haemocytometer. • 2) Using an 8 channel multipipettor, add 160 μl of the cell suspension (3600 cells/well or 2×10^4 cells/ml) to each well of a 96-well microtitre plate. • 3) Incubate overnight at 37° C. in a CO2 incubator. […]
Day 6 • 8) Tip off medium into sink and immerse plate slowly into 10% ice cold trichloroacetic acid (TCA). […] Leave for 15 mins. • 12) Wash off unbound SRB stain with four washes of 1% acetic acid. • 13) Dry plates in incubator. • 14) Solubilise SRB using 100 μl of 10 mM Tris base and put plates on plate shaker for 5 mins. • 15) Determine absorbance at 540 nm using a plate reader. Calculate mean absorbance for quadruplicate wells and express as a percentage of value for control, untreated wells. • 16) Plot % absorbance values versus log drug concentration and determine the IC50.

| IC50 (human full-length HSP90) | Compound | IC50 [1] |
| --- | --- | --- |
| < 1000 nM | COc1cc(-c2ccnc3[nH]cc(C#N)c23)c(Cl)cc1Cl [Example 4, 4-(2,4-Dichloro-5-methoxy-phenyl)-1H-pyrrolo[2,3-b]pyridine-3-carbonitrile] | – |
| < 1000 nM | COc1cc(-c2cc(Cl)nc3[nH]cc(C#N)c23)c(Cl)cc1Cl [Example 5, 6-Chloro-4-(2,4-dichloro-5-methoxy-phenyl)-1H-pyrrolo[2,3-b]pyridine-3-carbonitrile] | < 50 µM |
| 1000 to 10000 nM | N#Cc1c[nH]c2nc(OCCCN3CCCCC3)cc(-c3ccc(Cl)cc3Cl)c12 [Example 11, 4-(2,4-Dichloro-phenyl)-6-(3-piperidin-1-yl-propoxy)-1H-pyrrolo[2,3-b]pyridine-3-carbonitrile] | – |
| 1000 to 10000 nM | N#Cc1c[nH]c2nccc(-c3cccc(O)c3)c12 [Example 12, 4-(3-Hydroxy-phenyl)-1H-pyrrolo[2,3-b]pyridine-3-carbonitrile] | – |
| > 10000 nM | CCN(CC)CCOc1cc(-c2ccccc2)c2c(C#N)c[nH]c2n1 [Example 9, 6-(2-Diethylamino-ethoxy)-4-phenyl-1H-pyrrolo[2,3-b]pyridine-3-carbonitrile] | – |
| < 1000 nM | N#Cc1c[nH]c2nc(Cl)cc(-c3ccc(Cl)cc3Cl)c12 [Example 3, 6-Chloro-4-(2,4-dichloro-phenyl)-1H-pyrrolo[2,3-b]pyridine-3-carbonitrile] | – |
| 1000 to 10000 nM | CCN(CC)CCOc1cc(-c2ccc(Cl)cc2Cl)c2c(C#N)c[nH]c2n1 [Example 10, 4-(2,4-Dichloro-phenyl)-6-(2-diethylamino-ethoxy)-1H-pyrrolo[2,3-b]pyridine-3-carbonitrile] | – |
| < 1000 nM | Cc1ccc(-c2ccnc3[nH]cc(C#N)c23)c(C)c1 [Example 1, 4-(2,4-Dimethyl-phenyl)-1H-pyrrolo[2,3-b]pyridine-3-carbonitrile] | – |
| 1000 to 10000 nM | Cc1ccc(-c2ccnc3[nH]cc(Br)c23)c(C)c1 [Example 6] | – |
| 1000 to 10000 nM | CCN(CC)CCOc1cccc(-c2ccnc3[nH]cc(C#N)c23)c1 [Example 13, 4-[3-(2-Diethylamino-ethoxy)-phenyl]-1H-pyrrolo[2,3-b]pyridine-3-carbonitrile] | – |
| < 1000 nM | COc1cc(-c2ccccc2)c2c(C#N)c[nH]c2n1 [Example 15, 6-methoxy-4-(-phenyl)-1H-pyrrolo[2,3-b]pyridine-3-carbonitrile] | – |
| < 1000 nM | N#Cc1c[nH]c2nccc(-c3ccc(Cl)cc3Cl)c12 [Example 2, 4-(2,4-Dichloro-phenyl)-1H-pyrrolo[2,3-b]pyridine-3-carbonitrile] | – |
| < 1000 nM | Cc1ccc(-c2ccnc3[nH]cc(C=O)c23)c(C)c1 [Example 7, 4-(2,4-Dimethyl-phenyl)-1H-pyrrolo[2,3-b]pyridine-3-carbaldehyde] | – |
| < 1000 nM | N#Cc1c[nH]c2nc(Cl)cc(-c3cccc(O)c3)c12 [Example 14, 6-Chloro-4-(3-hydroxy-phenyl)-1H-pyrrolo[2,3-b]pyridine-3-carbonitrile] | – |
